Experimental data reported in ChEMBL document CHEMBL4017473, “Discovery of LRRK2 inhibitors by using an ensemble of virtual screening methods” (Bioorg Med Chem Lett, 2017).

Columns and labels:
[1] = molecular target: Leucine-rich repeat serine/threonine-protein kinase 2 (Homo sapiens, UniProt Q5S007); assay: Inhibition of full length wild-type LRRK2 (unknown origin) using biotinylated ezrin/radaxin/meosin peptide as substrate measured after 1 hr
[2] = molecular target: Leucine-rich repeat serine/threonine-protein kinase 2 (Homo sapiens, UniProt Q5S007, G2019S); assay: Inhibition of LRRK2 G2019S mutant (unknown origin) using biotinylated ezrin/radaxin/meosin peptide as substrate measured after 1 hr
Leucine-rich repeat serine/threonine-protein kinase 2 (Homo sapiens, UniProt Q5S007, G2019S), sequence (Q5S007 whole entry G2019S): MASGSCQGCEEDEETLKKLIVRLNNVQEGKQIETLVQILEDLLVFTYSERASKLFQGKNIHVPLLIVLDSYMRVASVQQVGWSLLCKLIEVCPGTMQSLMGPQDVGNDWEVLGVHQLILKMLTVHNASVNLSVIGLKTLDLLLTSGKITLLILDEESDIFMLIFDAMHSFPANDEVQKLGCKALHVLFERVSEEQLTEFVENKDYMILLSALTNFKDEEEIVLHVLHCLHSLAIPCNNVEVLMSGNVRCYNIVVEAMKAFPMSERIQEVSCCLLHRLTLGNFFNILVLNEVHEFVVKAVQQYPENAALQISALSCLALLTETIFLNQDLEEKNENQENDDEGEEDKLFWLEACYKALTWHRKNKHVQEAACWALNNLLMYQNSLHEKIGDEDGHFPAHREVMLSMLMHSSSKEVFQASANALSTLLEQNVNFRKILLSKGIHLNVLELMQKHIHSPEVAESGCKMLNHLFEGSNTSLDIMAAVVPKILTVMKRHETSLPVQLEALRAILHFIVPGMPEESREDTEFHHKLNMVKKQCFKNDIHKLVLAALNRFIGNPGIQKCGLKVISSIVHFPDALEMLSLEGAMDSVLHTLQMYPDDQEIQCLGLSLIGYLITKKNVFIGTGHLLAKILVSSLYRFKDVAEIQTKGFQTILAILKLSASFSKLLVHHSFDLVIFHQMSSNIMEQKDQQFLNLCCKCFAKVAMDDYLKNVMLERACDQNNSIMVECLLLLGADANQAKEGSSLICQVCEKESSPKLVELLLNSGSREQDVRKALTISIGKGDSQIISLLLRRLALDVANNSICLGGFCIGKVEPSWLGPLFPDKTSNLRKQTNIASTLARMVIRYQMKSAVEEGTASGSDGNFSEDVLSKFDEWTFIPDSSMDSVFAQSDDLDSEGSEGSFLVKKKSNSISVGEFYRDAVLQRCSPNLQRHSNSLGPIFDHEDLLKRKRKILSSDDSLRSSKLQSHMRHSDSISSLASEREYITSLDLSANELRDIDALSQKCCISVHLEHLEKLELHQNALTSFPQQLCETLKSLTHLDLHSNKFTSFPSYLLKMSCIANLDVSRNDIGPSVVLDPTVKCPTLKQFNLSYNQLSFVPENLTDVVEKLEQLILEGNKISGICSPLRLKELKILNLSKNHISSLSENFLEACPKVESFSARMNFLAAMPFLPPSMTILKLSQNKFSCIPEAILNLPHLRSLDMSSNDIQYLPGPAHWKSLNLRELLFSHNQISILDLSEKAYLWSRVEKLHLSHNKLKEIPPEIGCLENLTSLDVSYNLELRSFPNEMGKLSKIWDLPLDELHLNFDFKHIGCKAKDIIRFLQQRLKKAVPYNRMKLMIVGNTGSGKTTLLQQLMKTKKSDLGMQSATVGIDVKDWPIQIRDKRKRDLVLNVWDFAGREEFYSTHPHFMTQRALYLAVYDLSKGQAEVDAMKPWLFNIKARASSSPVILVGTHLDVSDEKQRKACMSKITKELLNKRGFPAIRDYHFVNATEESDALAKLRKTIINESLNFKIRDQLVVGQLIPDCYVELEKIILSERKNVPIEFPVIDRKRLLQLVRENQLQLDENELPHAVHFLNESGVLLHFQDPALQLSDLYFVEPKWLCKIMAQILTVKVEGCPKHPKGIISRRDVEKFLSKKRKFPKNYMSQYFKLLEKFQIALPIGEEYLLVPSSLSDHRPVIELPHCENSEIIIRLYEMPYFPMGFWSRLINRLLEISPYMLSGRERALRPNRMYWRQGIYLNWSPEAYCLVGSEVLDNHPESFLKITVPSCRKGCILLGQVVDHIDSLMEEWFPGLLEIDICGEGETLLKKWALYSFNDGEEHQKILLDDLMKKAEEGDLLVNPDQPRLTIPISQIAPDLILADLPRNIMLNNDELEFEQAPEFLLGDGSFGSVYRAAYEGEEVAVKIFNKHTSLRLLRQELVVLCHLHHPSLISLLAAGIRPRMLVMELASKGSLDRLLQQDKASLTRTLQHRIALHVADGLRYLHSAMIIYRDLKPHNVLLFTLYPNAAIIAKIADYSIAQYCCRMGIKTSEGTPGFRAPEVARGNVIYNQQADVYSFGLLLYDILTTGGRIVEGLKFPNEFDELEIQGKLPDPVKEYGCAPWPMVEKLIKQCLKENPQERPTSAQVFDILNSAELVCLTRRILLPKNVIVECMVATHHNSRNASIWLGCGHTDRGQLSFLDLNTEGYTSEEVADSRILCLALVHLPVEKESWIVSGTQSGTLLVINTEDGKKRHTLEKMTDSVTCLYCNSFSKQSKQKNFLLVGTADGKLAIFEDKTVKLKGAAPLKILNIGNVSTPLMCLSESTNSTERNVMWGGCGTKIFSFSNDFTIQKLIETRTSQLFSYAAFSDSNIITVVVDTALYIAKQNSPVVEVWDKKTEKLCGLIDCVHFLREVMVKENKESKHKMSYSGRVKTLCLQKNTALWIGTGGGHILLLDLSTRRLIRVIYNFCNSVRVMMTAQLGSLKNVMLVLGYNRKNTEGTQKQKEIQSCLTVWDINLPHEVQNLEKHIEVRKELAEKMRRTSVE

Leucine-rich repeat serine/threonine-protein kinase 2 (Homo sapiens, UniProt Q5S007), sequence (Q5S007 whole entry): as the sequence (Q5S007 whole entry G2019S) above, with S2019G counted along it

| Structure (SMILES) | IC50 [1] [nM] | IC50 [2] [nM] | Ki [1] [nM] |
| --- | --- | --- | --- |
| CCOc1ccc(Nc2nc(N3CCOCC3)c3nc[nH]c3n2)cc1 | 351 | 355 |  |
| NC(=O)c1ccc(Nc2nc(N3CCOCC3)c3ccccc3n2)cc1 | 825 | 633 |  |
| O=c1[nH]ccc2nc(N3CCC(O)CC3)nc(Nc3cccc(C(F)(F)F)c3)c12 |  |  | 54 |
| CN(C)S(=O)(=O)c1ccc(C(=O)Nc2nc3ccccc3n2-c2ccccc2)o1 | > 10000 | > 10000 |  |
| Clc1c[nH]c2ncc(-c3cncc(N4CCOCC4)n3)cc12 |  | ≤ 500 |  |

Continued, values first:

| IC50 [1] [nM] | IC50 [2] [nM] | Ki [1] [nM] | Structure (SMILES) |
| --- | --- | --- | --- |
| 10 |  |  | Cc1ccccc1Nc1nc2ccc(-c3cc(C)c(O)c(C)c3)cn2n1 |
| 343 | 274 |  | CCn1c(NC(=O)c2ccnc(-n3ccnc3)c2)nc2ccccc21 |
| 3 |  |  | c1cc(-c2n[nH]c3ccnc(OC4CCOCC4)c23)cc(N2CCCC2)n1 |
| 1.3 | 1.9 |  | COc1cc(N2CCOCC2)ccc1Nc1ncc(F)c(Nc2ccccc2NS(C)(=O)=O)n1 |
| ≤ 6 |  |  | C[C@@H](Nc1c(C(N)=O)nnc2cc(-c3ccncc3)ccc12)C1CC1 |
| 84 | 48 |  | COc1cccc(Nc2nc(NCCO)c3nc[nH]c3n2)c1 |
